In article PMC10020548, “Synthesis and structure–activity relationship studies of benzimidazole-thioquinoline derivatives as α-glucosidase inhibitors” (Scientific Reports, 2023):
Like-named read-outs stand apart in the source and are kept apart here.

Legend:
[1] = molecular target: T1, α-Glucosidase enzyme (EC3.2.1.20, Saccharomyces cerevisiae) (Saccharomyces cerevisiae, UniProt P53341); assay: biochemical; settings: α-glucosidase from S. cerevisiae, substrate p-nitrophenyl glucopyranoside, pH 6.8, 37 °C; mean ± SD
T1 construct: purchased Sigma-Aldrich
T1 sequence (P53341 whole entry): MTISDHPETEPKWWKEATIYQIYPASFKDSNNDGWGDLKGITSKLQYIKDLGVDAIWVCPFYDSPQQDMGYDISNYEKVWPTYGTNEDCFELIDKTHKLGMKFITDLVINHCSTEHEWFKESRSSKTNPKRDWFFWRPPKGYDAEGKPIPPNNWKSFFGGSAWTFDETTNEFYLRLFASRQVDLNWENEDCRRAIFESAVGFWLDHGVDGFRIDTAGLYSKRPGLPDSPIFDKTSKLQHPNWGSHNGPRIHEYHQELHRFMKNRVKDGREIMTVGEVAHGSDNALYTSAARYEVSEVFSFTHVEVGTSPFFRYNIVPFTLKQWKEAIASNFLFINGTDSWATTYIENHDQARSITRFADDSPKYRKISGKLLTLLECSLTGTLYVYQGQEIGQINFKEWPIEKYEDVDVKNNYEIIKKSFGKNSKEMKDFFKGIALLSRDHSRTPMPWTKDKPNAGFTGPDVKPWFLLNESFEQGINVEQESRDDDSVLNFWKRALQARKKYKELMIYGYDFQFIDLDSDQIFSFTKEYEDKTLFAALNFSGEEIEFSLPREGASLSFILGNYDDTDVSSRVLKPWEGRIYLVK
Experimental: α-Glucosidase enzyme (EC3.2.1.20, Saccharomyces cerevisiae, 20 U/mg) and substrate (p-nitrophenyl glucopyranoside) were purchased from Sigma-Aldrich. 1 mg of α-glucosidase was dissolved in potassium phosphate buffer (50 mM, pH = 6.8) to obtain the initial activity of 1 U ml^–1. Then, 20 µl of this enzyme solution was incubated with 135 µl of potassium phosphate buffer and 20 µl of test compound at various concentrations in DMSO. Therefore, the final concentration of the enzyme was about 0.1 U ml^–1. After 10 min incubation at 37 °C, 25 µl of the substrate at a final concentration of 4 mM was added to the mixture and allowed to incubate at 37 °C for 20 min.
The percentage of inhibition for each entry was calculated by using the following formula: %Inhibition=[(Abscontrol-Abssample)/Abscontrol]×100 IC50 values were obtained from the nonlinear regression curve using the Logit method.

[2] = molecular target: α-glucosidase; settings: cited from earlier work
[3] = test system: LO2 cells; set-up: method as in PMID 34717239; settings: cited from earlier work
[4] = test system: α-glucosidase; set-up: method as in PMID 34717239; settings: cited from earlier work
[5] = molecular target: α-glucosidase (Saccharomyces cerevisiae, UniProt P53341); assay: Enzyme kinetic studies (Lineweaver–Burk plot, secondary plot); type: biochemical
Chain of α-glucosidase (Saccharomyces cerevisiae, UniProt P53341) (P53341 whole entry): as above
Experimental: A Lineweaver–Burk plot was generated to identify the type of inhibition and the Michaelis–Menten constant (Km) value was determined from the plot between the reciprocal of the substrate concentration (1/[S]) and reciprocal of enzyme rate (1/V) over various inhibitor concentrations. The experimental inhibitor constant (Ki) value was constructed by secondary plots of the inhibitor concentration [I] versus Km[43],[44].

Row | SMILES | IC50 [1] [µM] | further results
1 | O=C(O)c1ccc2ccccc2n1 [Compound A, Quinoline-2-carboxylic acid] |  | IC50 [2]: 9.1 ± 2.3 µg/mL
2 | Cc1cc2nc(-c3ccc(C(=O)N/N=C/c4cc(O)c(O)c(O)c4)cc3)[nH]c2cc1C [G] |  | IC50 ([2]; benzimidazole derivatives (Zawawi and coworkers), read-out: IC50): 8.4 ± 0.76 µM
3 | Cc1cccc2nc(-c3ccccc3Cl)[nH]c12 [H] |  | IC50 ([2]; benzimidazole of previous studies, read-out: IC50): 5.3 ± 0.1 µM
4 | CC(C)(C)c1ccc(C(=O)Oc2cccc(-c3nc4ccccc4[nH]3)c2)cc1 [F] |  | IC50 ([2]; 2-phenyl-1H-benzo[d]imidazole derivatives, read-out: IC50): 0.71 ± 0.02 µM; cytotoxicity against LO2 cells [3]: no cytotoxicity; type of inhibition (kinetic study) [4]: non-competitive inhibition
5 | Brc1ccc(CNc2cccc(-c3nc4ccccc4[nH]3)c2)cn1 [E] |  | IC50 ([2]; in-house library hit, read-out: IC50): 37.9 ± 1.86 µM
6 | O=C(N/N=C/c1ccc(O)c(O)c1)c1ccc2ncccc2c1 [Compound C] |  | IC50 ([2]; quinoline derivatives study, read-out: IC50): 6.2 ± 0.3 µM
7 | Brc1ccc(CSc2nc3ccccc3cc2-c2nc3ccccc3[nH]2)cc1 [Compound 6j, 3-(1H-benzo[d]imidazol-2-yl)-2-((4-bromobenzyl)thio)quinoline] | 28 ± 0.6 | Ki ([5]; secondary plot of Km versus inhibitor concentration, read-out: inhibition constant, Ki): 28.1 µM; inhibition pattern (Lineweaver–Burk plot) ([5]; substrate p-nitrophenyl α-D-glucopyranoside 1–16 mM, inhibitor 0, 7, 14, 28 µM): competitive inhibition
8 | O=c1c(C(c2c[nH]c3ccccc23)c2c[nH]c3ccccc23)cc2ccccc2n1Cc1ccccc1 [Compound D] |  | IC50 ([2]; quinolone-bis(indolyl)methane hybrids study, read-out: IC50): 21.8 ± 1.8 µM
9 | O=C(N/N=C/c1ccc(O)c(O)c1)c1ccc(-c2nnc(-c3ccc4ncccc4c3)o2)cc1 [Compound B] |  | IC50 ([2]; oxadiazole-quinoline study, read-out: IC50): 2.6 ± 0.01 µM

The next lines start with results.

Row | IC50 [1] [µM] | SMILES | further results
10 | 126.9 ± 0.5 | Cc1cccc(CSc2nc3ccccc3cc2-c2nc3ccccc3[nH]2)c1C [Compound 6o, 3-(1H-benzo[d]imidazol-2-yl)-2-((2,3-dimethylbenzyl)thio)quinoline] | 
11 | 48.2 ± 0.4 | Clc1cccc(CSc2nc3ccccc3cc2-c2nc3ccccc3[nH]2)c1 [Compound 6f, 3-(1H-benzo[d]imidazol-2-yl)-2-((3-chlorobenzyl)thio)quinoline] | 
12 | 116.6 ± 0.5 | Cc1ccc(CSc2nc3ccccc3cc2-c2nc3ccccc3[nH]2)cc1 [Compound 6n, 3-(1H-benzo[d]imidazol-2-yl)-2-((4-methylbenzyl)thio)quinoline] | 
13 | 158 ± 2.4 | Cc1cccc(CSc2nc3ccccc3cc2-c2nc3ccccc3[nH]2)c1 [Compound 6m, 3-(1H-benzo[d]imidazol-2-yl)-2-((3-methylbenzyl)thio)quinoline] | 
14 | 300.7 ± 2 | CCSc1nc2ccccc2cc1-c1nc2ccccc2[nH]1 [Compound 6r, 3-(1H-benzo[d]imidazol-2-yl)-2-(ethylthio)quinoline] | 
15 | 76.7 ± 0.7 | Fc1cccc(CSc2nc3ccccc3cc2-c2nc3ccccc3[nH]2)c1 [Compound 6c, 3-(1H-benzo[d]imidazol-2-yl)-2-((3-fluorobenzyl)thio)quinoline] | 
16 | 99.4 | Clc1ccc(CSc2nc3ccccc3cc2-c2nc3ccccc3[nH]2)cc1Cl [Compound 6k, 3-(1H-benzo[d]imidazol-2-yl)-2-((3,4-dichlorobenzyl)thio)quinoline] | 
17 | 89.2 ± 1.3 | O=[N+]([O-])c1ccc(CSc2nc3ccccc3cc2-c2nc3ccccc3[nH]2)cc1 [Compound 6p, 3-(1H-benzo[d]imidazol-2-yl)-2-((4-nitrobenzyl)thio)quinoline] | 
18 | 663.7 ± 1.2 | Clc1ccccc1CSc1nc2ccccc2cc1-c1nc2ccccc2[nH]1 [Compound 6e, 3-(1H-benzo[d]imidazol-2-yl)-2-((2-chlorobenzyl)thio)quinoline] | 
19 | 67.3 ± 0.8 | COc1ccc(CSc2nc3ccccc3cc2-c2nc3ccccc3[nH]2)cc1 [Compound 6q, 3-(1H-benzo[d]imidazol-2-yl)-2-((4-methoxybenzyl)thio)quinoline] | 
20 | 65.5 ± 2 | Brc1cccc(CSc2nc3ccccc3cc2-c2nc3ccccc3[nH]2)c1 [Compound 6i, 3-(1H-benzo[d]imidazol-2-yl)-2-((3-bromobenzyl)thio)quinoline] | 
21 | 80.9 ± 1.1 | Fc1ccc(CSc2nc3ccccc3cc2-c2nc3ccccc3[nH]2)cc1 [Compound 6d, 3-(1H-benzo[d]imidazol-2-yl)-2-((4-fluorobenzyl)thio)quinoline] | 
22 | 153.7 ± 0.9 | c1ccc(CSc2nc3ccccc3cc2-c2nc3ccccc3[nH]2)cc1 [Compound 6a, 3-(1H-benzo[d]imidazol-2-yl)-2-(benzylthio) quinoline] | 
23 | 96.6 ± 0.1 | Clc1ccc(CSc2nc3ccccc3cc2-c2nc3ccccc3[nH]2)cc1 [Compound 6g, 3-(1H-benzo[d]imidazol-2-yl)-2-((4-chlorobenzyl)thio)quinoline] | 
24 | 195.7 ± 0.6 | Cc1ccccc1CSc1nc2ccccc2cc1-c1nc2ccccc2[nH]1 [Compound 6l, 3-(1H-benzo[d]imidazol-2-yl)-2-((2-methylbenzyl)thio)quinoline] | 
25 | 133.5 ± 1.3 | Brc1ccccc1CSc1nc2ccccc2cc1-c1nc2ccccc2[nH]1 [Compound 6h, 3-(1H-benzo[d]imidazol-2-yl)-2-((2-bromobenzyl)thio)quinoline] | 
26 | 188 ± 2.4 | Fc1ccccc1CSc1nc2ccccc2cc1-c1nc2ccccc2[nH]1 [Compound 6b, 3-(1H-benzo[d]imidazol-2-yl)-2-((2-fluorobenzyl)thio)quinoline] | 
